In one assay the test system is Pneumocystis carinii. As to the kind of experiment: Compound was tested for anti-P. carinii activity in vitro. It counts as functional.
The nature of assay [1]: Delta Tm (thermal denaturation) in sonicated poly(dA).poly(dT) homopolymer.
The test system of the next assay is Nucleic Acid. As to the kind of experiment: Delta Tm (thermal denaturation) in sonicated calf thymus DNA. It is filed as nucleic-acid assay. Further details: unit not given here. The note with it: Bos taurus.

`N=C(N)c1ccc(OCCCCCOc2ccc(C(=N)N)cc2)cc1` [PENTAMIDINE] showed an Activity in the assay with Pneumocystis carinii of 27 µM. Moreover, the ΔTm in assay [1] stood at 22.9; with Nucleic Acid it was 10.
In the assay on Pneumocystis carinii, `N=C(N)c1ccc(OC/C=C\COc2ccc(C(=N)N)cc2)cc1` gave an Activity of 9 µM. Moreover, the ΔTm in assay [1] was 31.5; with Nucleic Acid, 11.
The compound `C(=C\COc1ccc(C2=NCCN2)cc1)/COc1ccc(C2=NCCN2)cc1` had an Activity in the assay with Pneumocystis carinii of 42 µM. Moreover, the ΔTm in assay [1] was found to be 20.8; with Nucleic Acid, 7.9.
In the assay on Pneumocystis carinii, `N=C(N)c1ccc(OC/C=C/COc2ccc(C(=N)N)cc2)cc1` had an Activity of 19 µM. The ΔTm is 23.3 in assay [1] and 7.7 in the assay with Nucleic Acid.
For the compound `N=C(N)c1ccc(OCCCCOc2ccc(C(=N)N)cc2)cc1`, the Activity with Pneumocystis carinii was found to be 39 µM. Moreover, the ΔTm is 20.4 in assay [1] and 8.3 with Nucleic Acid.
The compound `COc1cc(Cc2cnc(N)nc2N)cc(OC)c1OC.Cc1cc(NS(=O)(=O)c2ccc(N)cc2)no1` [CO-TRIMOXAZOLE] gave an Activity in the assay with Pneumocystis carinii of 17 µM.
For the compound `C(=C/COc1ccc(C2=NCCN2)cc1)/COc1ccc(C2=NCCN2)cc1`, the Activity in the assay with Pneumocystis carinii was found to be 25 µM. Moreover, the ΔTm in assay [1] turned out to be 28.9; in the assay on Nucleic Acid, 9.3.
With `N=C(N)c1ccc(OC[C@@H](O)[C@@H](O)COc2ccc(C(=N)N)cc2)cc1`, in the assay with Pneumocystis carinii, the Activity amounted to 78 µM.

The values are drawn from ChEMBL document CHEMBL1129146, “Pentamidine congeners. 4. DNA binding affinity and anti-Pneumocystis carinii activity of butamidine analogues” (1996).
